Measurements published in patent US7407775B2, “Method for identifying Listeria monocytogenes and culture medium” (Biomerieux S.A., priority 2000, dated 2008).

How the values were obtained:
Type in all cases: cell-based
Parameters in all cases: key: —: the symbol “-” corresponds to the absence of color or intensity; 0 corresponds to no activity; 0.1 corresponds to a trace of color; 0.5 corresponds to very pale coloration; 1 corresponds to clear but low-intensity coloration; 1.5 corresponds to a degree of coloration intermediate between scores 1 and 2; 2 corresponds to clear coloration of moderate intensity; 2.5 corresponds to a degree of coloration intermediate between scores 2 and 3; 3 corresponds to intense coloration; 3.5 corresponds to a degree of coloration intermediate between scores 3 and 4; 4 corresponds to very intense coloration
[1] = tested on: Listeria ivanovii 025; test: Experiment 1: esterase substrates, same chromogenic marker, fatty acids of different chain lengths; details: 37° C., substrate 250 mg/l
Method: A stock solution of each substrate at a concentration of 40 g/l was made up in a mixture of 40% Dimethylsulfoxide and 60% Polyoxyethylenesorbitan Monolaurate (Tween 20). An appropriate volume was added to three Columbia-type media while cooling to give a final substrate concentration of 250 mg/l. These dishes were divided into three areas and then each area was inoculated with a suspension (density=0.5 McFarland) of microorganisms taken from either the Applicant's own collection or the ATCC. The dishes were incubated for 48 hours at 37° C. The colonies which grew were examined by eye after 24 and 48 hours of incubation. Both the color and the intensity of the color of the colonies were recorded.
(§1) In Table 1 above, as in the following Tables, C represents the color of the colonies after incubation, I represents the intensity of the color, and the symbol “-” corresponds to the absence of color or intensity; finally, IT defines the incubation time. It should be noted that the intensity of the color is scored on an arbitrary scale but one which is consistent for all the biological specimens and media tested. This scale is valid for this experiment as well as all those that follow. It can be defined in the following way: • 0 corresponds to no activity, • 0.1 corresponds to a trace of color, • 0.5 corresponds to very pale coloration, • 1 corresponds to clear but low-intensity coloration, • 1.5 corresponds to a degree of coloration intermediate between scores 1 and 2, • 2 corresponds to clear coloration of moderate intensity, • 2.5 corresponds to a degree of coloration intermediate between scores 2 and 3, • 3 corresponds to intense coloration, • 3.5 corresponds to a degree of coloration intermediate between scores 3 and 4, • 4 corresponds to very intense coloration.

[2] = tested on: Listeria ivanovii 018; test: Experiment 3: detecting an esterase activity in liquid medium (API-type strips); details: 37° C.
Method: as §1
(§2) These substrates were lyophilized in the wells of API-type strips (Registered Trademark). Before use, the substrates contained in the wells were resuspended in an agar-free Columbia-type inoculation medium. These wells were then inoculated with a suspension (density=2 McFarland) of microorganisms taken from either the Applicant's own collection or the ATCC. The strips were incubated for 8 hours at 37° C. The colonies which grew were examined by eye after 4, 6 and 8 hours of incubation.
(§3) The intensity of the color of the colonies was recorded.

[3] = tested on: Listeria monocytogenes 092; test: as above; details: 37° C.
Method: as §1, §2, §3

[4] = tested on: Listeria grayi ATCC 19120; test: as above; details: 37° C.
Method: as §1, §2, §3

[5] = tested on: Listeria seeligeri 011; test: as above; details: 37° C.
Method: as §1, §2, §3

[6] = tested on: Listeria monocytogenes ATCC 19115; test: as above; details: 37° C.
Method: as §1, §2, §3

CCCCCCCC(=O)Oc1c[nH]c2ccc(Br)cc12 [Blue-C8, 5-Bromo-3-indolyl octanoate]
—: C (color of the colonies) ([1]; IT 24 h) | I (intensity of the color) ([1]; IT 24 h) | C (color of the colonies) ([1]; IT 48 h) | I (intensity of the color) ([1]; IT 48 h)

CCCCCCCC(=O)Oc1c[nH]c2cc(Cl)c(Br)cc12 [Magenta-C8, 5-Bromo-6-chloro-3-indolyl octanoate]
0.5: I (intensity of the color) ([3]; IT 8 h) | I (intensity of the color) ([6]; IT 8 h)
—: I (intensity of the color) ([2]; IT 4 h) | I (intensity of the color) ([2]; IT 6 h) | I (intensity of the color) ([2]; IT 8 h) | I (intensity of the color) ([3]; IT 4 h) | I (intensity of the color) ([3]; IT 6 h) | I (intensity of the color) ([4]; IT 4 h) | I (intensity of the color) ([4]; IT 6 h) | I (intensity of the color) ([4]; IT 8 h) | I (intensity of the color) ([5]; IT 4 h) | I (intensity of the color) ([5]; IT 6 h) | I (intensity of the color) ([5]; IT 8 h) | I (intensity of the color) ([6]; IT 4 h) | I (intensity of the color) ([6]; IT 6 h)

CCCCCCCC(=O)Oc1c[nH]c2cc(Cl)ccc12 [Pink-C8, 6-Chloro-3-indolyl octanoate]
—: I (intensity of the color) ([2]; IT 4 h) | I (intensity of the color) ([2]; IT 6 h) | I (intensity of the color) ([2]; IT 8 h) | I (intensity of the color) ([3]; IT 4 h) | I (intensity of the color) ([3]; IT 6 h) | I (intensity of the color) ([3]; IT 8 h) | I (intensity of the color) ([4]; IT 4 h) | I (intensity of the color) ([4]; IT 6 h) | I (intensity of the color) ([4]; IT 8 h) | I (intensity of the color) ([5]; IT 4 h) | I (intensity of the color) ([5]; IT 6 h) | I (intensity of the color) ([5]; IT 8 h) | I (intensity of the color) ([6]; IT 4 h) | I (intensity of the color) ([6]; IT 6 h) | I (intensity of the color) ([6]; IT 8 h)

CCCCCCCCC(=O)Oc1c[nH]c2ccc(Br)cc12 [Blue-C9, 5-Bromo-3-indolyl nonanoate]
—: C (color of the colonies) ([1]; IT 24 h) | I (intensity of the color) ([1]; IT 24 h) | C (color of the colonies) ([1]; IT 48 h) | I (intensity of the color) ([1]; IT 48 h)

CCCCCCCCCC(=O)Oc1c[nH]c2ccc(Br)cc12 [Blue-C10, 5-Bromo-3-indolyl decanoate]
—: C (color of the colonies) ([1]; IT 24 h) | I (intensity of the color) ([1]; IT 24 h) | C (color of the colonies) ([1]; IT 48 h) | I (intensity of the color) ([1]; IT 48 h)

CCCCCCCC(=O)Oc1c[nH]c2ccc(Br)c(Cl)c12 [X-C8, 5-Bromo-4-chloro-3-indolyl octanoate]
1: I (intensity of the color) ([3]; IT 6 h) | I (intensity of the color) ([6]; IT 6 h)
0.5: I (intensity of the color) ([5]; IT 6 h) | I (intensity of the color) ([5]; IT 8 h)
—: I (intensity of the color) ([2]; IT 4 h) | I (intensity of the color) ([2]; IT 6 h) | I (intensity of the color) ([2]; IT 8 h) | I (intensity of the color) ([3]; IT 4 h) | I (intensity of the color) ([4]; IT 4 h) | I (intensity of the color) ([4]; IT 6 h) | I (intensity of the color) ([4]; IT 8 h) | I (intensity of the color) ([5]; IT 4 h) | I (intensity of the color) ([6]; IT 4 h)
1.5: I (intensity of the color) ([3]; IT 8 h) | I (intensity of the color) ([6]; IT 8 h)
